This is an account of results in ChEMBL document CHEMBL5608163, “Structure modification of anoplin for fighting resistant bacteria” (Eur J Med Chem, 2024).

In data set [1] the test system is Bacillus subtilis. The experiment in a line: Antibacterial activity against Bacillus subtilis ATCC 23857 assessed as reduction in bacterial cell growth incubated for 24 hrs by broth micro-dilution analysis. It counts as functional. For orientation: Broth dilution looks for growth in wells or tubes with falling amounts of substance.
Data set [2] has as its system Escherichia coli. The experiment in a line: Antibacterial activity against Escherichia coli DH5alpha assessed as bacterial growth inhibition. It counts as functional.
In data set [3] the test system is Escherichia coli. The experiment in a line: Antibacterial activity against wild type Escherichia coli MG1655 assessed as reduction in bacterial growth incubated for 18 to 24 hrs by broth micro-dilution method. It counts as functional. To be noted: time 18-24 hrs.
In data set [4] the test system is Escherichia coli. The experiment in a line: Antibacterial activity against Escherichia coli ATCC 25922 assessed as reduction in bacterial growth measured after 24 hrs by Mueller-Hinton broth based two-fold serial dilution method. It counts as functional.
In the next data set the test system is Erythrocyte. The experiment in a line: Hemolytic activity in sheep RBC incubated for 30 mins. It counts as toxicity, cell-based, Ovis aries. To be noted: 0.5 h.
Data set [5] has as its system Escherichia coli. The experiment in a line: Antibacterial activity against Escherichia coli assessed as reduction in bacterial growth incubated for 20 hrs by broth microdilution assay. In kind it is functional.
Data set [6] concerns Bacillus subtilis. The experiment in a line: Antibacterial activity against Bacillus subtilis assessed as reduction in bacterial growth incubated for 20 hrs by broth microdilution assay. It counts as functional.
The subject of data set [7] is Pseudomonas aeruginosa. The experiment in a line: Antibacterial activity against Pseudomonas aeruginosa ATCC 27853 assessed as bacterial growth inhibition measured for 18 hrs by CLSI-protocol based Mueller-Hinton Broth micro-dilution assay. In kind it is functional.
The subject of data set [8] is Pseudomonas aeruginosa. The experiment in a line: Antibacterial activity against Pseudomonas aeruginosa PAO1 assessed as bacterial growth inhibition measured for 18 hrs by CLSI-protocol based Mueller-Hinton Broth micro-dilution assay. It counts as functional.
In data set [9] the test system is Staphylococcus aureus. The experiment in a line: Antibacterial activity against Staphylococcus aureus ATCC 25923 assessed as reduction in bacterial growth measured after 24 hrs by Mueller-Hinton broth based two-fold serial dilution method. It counts as functional.
For data set [10], the system named is Bacillus subtilis. The experiment in a line: Antibacterial activity against Bacillus subtilis 168 assessed as bacterial growth inhibition measured for 18 hrs by CLSI-protocol based Mueller-Hinton Broth micro-dilution assay. It counts as functional.
For data set [11], the system named is Staphylococcus aureus. The experiment in a line: Antibacterial activity against methicillin-resistant Staphylococcus aureus ATCC BAA1720 assessed as bacterial growth inhibition measured for 18 hrs by CLSI-protocol based Mueller-Hinton Broth micro-dilution assay. It counts as functional.
The subject of data set [12] is Staphylococcus aureus. The experiment in a line: Antibacterial activity against Staphylococcus aureus assessed as bacterial growth inhibition incubated for 20 hrs by broth microdilution assay. In kind it is functional.
The subject of data set [13] is Bacillus subtilis. The experiment in a line: Antimicrobial activity against Bacillus subtilis assessed as reduction in microbial growth measured after 18 to 20 hrs by Mueller-Hinton broth based two-fold serial dilution method. In kind it is functional. To be noted: time 18-20 hrs.
For data set [14], the system named is Staphylococcus aureus. The experiment in a line: Antibacterial activity against Staphylococcus aureus ATCC 29213 assessed as bacterial growth inhibition measured for 18 hrs by CLSI-protocol based Mueller-Hinton Broth micro-dilution assay. In kind it is functional.
Another data set relates to Salmonella typhimurium. The experiment in a line: Antibacterial activity against Salmonella enterica subsp. enterica serovar Typhimurium LT2 assessed as bacterial growth inhibition measured for 18 hrs by CLSI-protocol based Mueller-Hinton Broth micro-dilution assay. In kind it is functional.
Data set [15] relates to Escherichia coli. The experiment in a line: Antibacterial activity against Escherichia coli MG1655 assessed as bacterial growth inhibition measured for 18 hrs by CLSI-protocol based Mueller-Hinton Broth micro-dilution assay. It counts as functional.
Data set [16] in a line: Hemolytic activity against Red blood cells (unknown origin) incubated for 1 hr by spectrophotometric analysis. It counts as toxicity, cell-based, Erythrocyte.
The test system of data set [17] is Pseudomonas aeruginosa. The experiment in a line: Antibacterial activity against Pseudomonas aeruginosa assessed as reduction in bacterial growth incubated for 20 hrs by broth microdilution assay. It counts as functional.
Data set [18] has as its system Escherichia coli. The experiment in a line: Antibacterial activity against Escherichia coli K12 assessed as bacterial growth inhibition measured for 18 hrs by CLSI-protocol based Mueller-Hinton Broth micro-dilution assay. It counts as functional.
The test system of data set [19] is Pseudomonas aeruginosa. The experiment in a line: Antibacterial activity against Pseudomonas aeruginosa ATCC 15442 assessed as reduction in bacterial cell growth incubated for 18 hrs by two fold serial microdilution method. In kind it is functional.
The nature of data set [20]: Hemolytic activity in human RBC assessed as hemolysis. In kind it is toxicity, cell-based, Erythrocyte. To be noted: red blood cells.
Data set [21] concerns Enterococcus faecium. The experiment in a line: Antibacterial activity against Enterococcus faecium. In kind it is functional.
The subject of data set [22] is Escherichia coli. The experiment in a line: Antibacterial activity against Escherichia coli ATCC 25922 assessed as bacterial growth inhibition measured after 48 hrs by resazurin assay. It counts as functional. Background: The colour change of resazurin is a common sign of viable cells or microbes.
Data set [23] deals with Enterococcus faecium. The experiment in a line: Antibacterial activity against Enterococcus faecium ATCC 700221 assessed as reduction in bacterial cell growth by CLSI broth microdilution method. It counts as functional.
Data set [24] has as its system Pseudomonas aeruginosa. The experiment in a line: Antibacterial activity against Pseudomonas aeruginosa ATCC 27853 assessed as reduction in bacterial growth by broth microdilution method. In kind it is functional.
In data set [25] the test system is Staphylococcus aureus. The experiment in a line: Antibacterial activity against Staphylococcus aureus ATCC 25923 assessed as reduction in bacterial growth incubated for 24 hrs by serial dilution method. In kind it is functional.
Data set [26] relates to Enterococcus faecium. The experiment in a line: Antibacterial activity against Enterococcus faecium ATCC 27270. It counts as functional.
The subject of data set [27] is Escherichia coli. The experiment in a line: Antibacterial activity against Escherichia coli. In kind it is functional.
The subject of data set [28] is Pseudomonas aeruginosa. The experiment in a line: Antibacterial activity against Pseudomonas aeruginosa assessed as reduction in bacterial growth by broth microdilution method. It counts as functional.
For data set [29], the system named is Staphylococcus aureus. The experiment in a line: Antibacterial activity against Staphylococcus aureus ATCC 29213 assessed as bacterial growth inhibition measured after 18 hrs by CLSI protocol based two-fold serial microdilution method. In kind it is functional.
Data set [30] deals with Escherichia coli. The experiment in a line: Antibacterial activity against Escherichia coli ATCC 25922 assessed as reduction in bacterial growth. In kind it is functional.
Data set [31] relates to Staphylococcus aureus. The experiment in a line: Antibacterial activity against Staphylococcus aureus. In kind it is functional.

≈ marks a conversion by molar mass, not a printed value. Peptide text beside a SMILES is read from it.

Broadly, the MIC is the lowest concentration found to suppress growth. For the molecule `CC[C@H](C)[C@H](NC(=O)[C@H](CCCNC(=N)N)NC(=O)[C@H](CCCCN)NC(=O)[C@H](CC(C)C)NC(=O)[C@H](CC(C)C)NC(=O)CN)C(=O)N[C@@H](CCCCN)C(=O)N[C@H](C(=O)N[C@@H](CC(C)C)C(=O)N[C@@H](CC(C)C)C(N)=O)[C@@H](C)O` [ANOPLIN], the MIC in the data set with Bacillus subtilis [1] worked out at 43.4 µM (≈ 50.1 µg/mL); in the data set with Escherichia coli [2], 86.7 µM (≈ 100 µg/mL).

By HC50 is commonly meant the concentration giving 50% haemolysis. `CC.CC[C@H](C)[C@H](NC(=O)[C@H](CCCNC(=N)N)NC(=O)[C@H](CCCCN)NC(=O)[C@H](CC(C)C)NC(=O)[C@H](CC(C)C)NC(=O)CN)C(=O)N[C@@H](CCCCN)C(=O)N[C@H](C(=O)N[C@@H](CC(C)C)C(=O)N[C@@H](CC(C)C)C(N)=O)[C@@H](C)O`: the MIC with Escherichia coli [3] was 32 µM; with Escherichia coli [4] it was > 22.6 µM; in the data set on Escherichia coli [5], 64 µM; in the data set with Bacillus subtilis [6], 32 µM; in the data set on Pseudomonas aeruginosa [7], 32 µM; with Pseudomonas aeruginosa [8], 16 µM. The MIC in the data set on Staphylococcus aureus [9] is 11.3 µM; with Bacillus subtilis [10] it was 16 µM; in the data set with Staphylococcus aureus [11], ≥ 64 µM; with Staphylococcus aureus [12], 64 µM; with Bacillus subtilis [13], 16 µM; in the data set on Staphylococcus aureus [14] it was ≥ 64 µM. Also, the MIC was 64 µM with Salmonella typhimurium, 32 µM in the data set on Escherichia coli [15], 32 µM with Pseudomonas aeruginosa [17] and 32 µM in the data set on Escherichia coli [18]. In addition, the HC10 with Erythrocyte was > 64 µM. In data set [16], the HC50 at 1 h is > 400 µM.

In the case of `CC[C@H](C)[C@H](NC(=O)[C@H](CCCCN)NC(=O)[C@H](CCCCN)NC(=O)[C@H](CC(C)C)NC(=O)[C@H](CC(C)C)NC(=O)CN)C(=O)N[C@@H](CCCCN)C(=O)N[C@H](C(=O)N[C@@H](CC(C)C)C(=O)N[C@@H](CC(C)C)C(N)=O)[C@@H](C)O`, the MIC with Pseudomonas aeruginosa [19] came to 56.8 µM (≈ 63.9 µg/mL); in the data set on Enterococcus faecium [21] it was 171 µM (≈ 192 µg/mL). Besides, the concentration for 50% haemolysis (HC50) in [20] was determined as 269 µM.

For `CC[C@H](C)[C@H](NC(=O)[C@H](CCCNC(=N)N)NC(=O)[C@H](CCCCN)NC(=O)[C@H](CC(C)C)NC(=O)[C@H](CC(C)C)NC(=O)CN)C(=O)N[C@@H](CCCCN)C(=O)N[C@@H](CCCCN)C(=O)N[C@@H](CC(C)C)C(=O)N[C@@H](CC(C)C)C(N)=O` (H-GLLKRIKKLL-NH2), the MIC in the data set with Escherichia coli [22] was 8.5 µM (≈ 10 µg/mL); with Enterococcus faecium [23], 66.3 µM (≈ 78.3 µg/mL); in the data set with Pseudomonas aeruginosa [24], 28.4 µM (≈ 33.5 µg/mL); with Staphylococcus aureus [25], 4.2 µM (≈ 4.96 µg/mL). The HC50 in [20] was > 312 µM.

For `CC[C@H](C)[C@H](NC(=O)[C@H](Cc1c[nH]c2ccccc12)NC(=O)[C@H](CCCCN)NC(=O)[C@H](CC(C)C)NC(=O)[C@H](CC(C)C)NC(=O)CN)C(=O)N[C@@H](CCCCN)C(=O)N[C@H](C(=O)N[C@@H](CC(C)C)C(=O)N[C@@H](CC(C)C)C(N)=O)[C@@H](C)O` (H-GLLKWIKTLL-NH2), the minimum inhibitory concentration (MIC) in the data set on Enterococcus faecium [26] stood at 9.5 µM (≈ 11.2 µg/mL); against Escherichia coli [27], 14.2 µM (≈ 16.8 µg/mL); in the data set on Pseudomonas aeruginosa [28] it was 28.4 µM (≈ 33.6 µg/mL); in the data set with Staphylococcus aureus [29], 62.2 µM (≈ 73.6 µg/mL); with Escherichia coli [30], 62.2 µM (≈ 73.6 µg/mL); against Staphylococcus aureus [31] it was 19.6 µM (≈ 23.2 µg/mL). Further, the HC50 in [20] was found to be 14 µM.
